Consider 27 molecules from US12404265B2, “Substituted pyridine derivatives as SARM1 inhibitors” (Nura Bio, Inc., priority 2020, dated 2025).

This assay deals with T1, human SARM1(50-724) (Homo sapiens, UniProt Q6SZW1).
T1 construct: 40 nM human SARM1(50-724)
T1 sequence (Q6SZW1 50-724): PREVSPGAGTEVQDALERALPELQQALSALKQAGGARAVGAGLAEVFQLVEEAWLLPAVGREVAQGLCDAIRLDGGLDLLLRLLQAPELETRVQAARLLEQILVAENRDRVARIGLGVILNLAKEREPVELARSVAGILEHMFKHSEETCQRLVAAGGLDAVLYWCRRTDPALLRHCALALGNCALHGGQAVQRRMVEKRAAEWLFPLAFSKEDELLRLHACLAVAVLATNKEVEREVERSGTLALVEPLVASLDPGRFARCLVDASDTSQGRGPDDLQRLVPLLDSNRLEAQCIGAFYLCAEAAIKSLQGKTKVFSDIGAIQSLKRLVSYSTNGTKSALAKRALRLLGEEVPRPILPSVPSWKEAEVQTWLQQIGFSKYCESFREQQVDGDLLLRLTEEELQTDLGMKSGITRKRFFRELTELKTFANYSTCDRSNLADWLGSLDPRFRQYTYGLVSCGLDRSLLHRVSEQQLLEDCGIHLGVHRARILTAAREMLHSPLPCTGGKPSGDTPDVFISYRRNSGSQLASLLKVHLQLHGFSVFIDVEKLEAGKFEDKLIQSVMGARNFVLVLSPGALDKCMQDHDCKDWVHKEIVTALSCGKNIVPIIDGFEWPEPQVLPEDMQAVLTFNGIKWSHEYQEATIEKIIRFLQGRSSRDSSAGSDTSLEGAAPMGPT
Put plainly: SARM1 NADase biochemical assay (HPLC of NAD and NAM). Conditions: 40 nM human SARM1(50-724), 0.3 mM NMN, 20 μM NAD, 60 minutes room temperature; dose-response from 100 μM, 1:3 dilution. The procedure:
Each reaction was run at a volume of 20 μL containing 50 μM compound (dissolved in DMSO; final concentration of DMSO is 1% v/v), 40 nM human SARM1(50-724), 0.3 mM NMN, 20 μM NAD, 1 mM TCEP, 25 mM HEPES pH 7.4, 10 mM KCl and 10 mM MgCl2. The reaction was incubated at room temperature for 60 minutes and quenched with 20 μL of 0.4% formic acid. The samples were run on Agilent HPLC 1260 Infinity II with Synergi 2.5 μM Fusion-RP 100 Å (100×3.0 mm) LC column from Phenomenex. Total run time for each sample was 4 minutes. The run was isocratic with 1.5% methanol in 40 mM ammonium acetate pH 6.0. Samples were run at a flow rate of 0.8 mL/min at 55° C. Peak areas of NAD and NAM were determined using OpenLAB CDS (Chem Station edition) software. For dose-response, the compound was diluted serially 1:3 in DMSO and added to the reaction starting at a final compound concentration of 100 μM in 1% DMSO.
Consider `Cc1c(-c2ccncc2)n[nH]c1NC(=O)C(F)Cc1ccc(Cl)cc1` (racemic) [Example 18, (rac)-3-(4-chlorophenyl)-2-fluoro-N-(4-methyl-3-(pyridin-4-yl)-1H-pyrazol-5-yl)propanamide], for which the IC50 (usually the concentration that inhibits the measured activity by half) was less than 1000 nM. Next, `Cc1c(-c2ccncc2)n[nH]c1NC(=O)C(F)Cc1ccc(C#N)c(F)c1` (racemic) [Example 70, (rac)-3-(4-Cyano-3-fluorophenyl)-2-fluoro-N-(4-methyl-3-(pyridin-4-yl)-1H-pyrazol-5-yl)propanamide]: 1000 to 10000 nM; `Cc1c(-c2ccncc2)n[nH]c1NC(=O)C(F)Cc1cc(F)c(Cl)c(F)c1` (racemic) [Example 71, (rac)-3-(4-Chloro-3,5-difluorophenyl)-2-fluoro-N-(4-methyl-3-(pyridin-4-yl)-1H-pyrazol-5-yl)propanamide]: less than 1000 nM. For the molecule `Cc1c(NC(=O)C(O)Cc2ccc(Cl)cc2)cnn1-c1ccncc1` (racemic) [Example 150, (rac)-3-(4-Chlorophenyl)-2-hydroxy-N-(5-methyl-1-(pyridin-4-yl)-1H-pyrazol-4-yl)propanamide], the IC50 fell in the range of 1000 to 10000 nM.

In the case of `Cc1c(-c2ccncc2)n[nH]c1N1C(=O)CC(Cc2ccc(Cl)cc2)C1=O` (racemic) [Example 154, (rac)-3-(4-Chlorobenzyl)-1-(4-methyl-3-(pyridin-4-yl)-1H-pyrazol-5-yl)pyrrolidine-2,5-dione], the IC50 fell in the range of 1000 to 10000 nM. `O=C1CC(c2ccc(Cl)cc2)CC(=O)N1c1cc(-c2ccncc2)n[nH]1` (racemic) [Example 155, (rac)-4-(4-Chlorophenyl)-1-(3-(pyridin-4-yl)-1H-pyrazol-5-yl)piperidine-2,6-dione]: the IC50 is less than 1000 nM. As to `O=C1CC(Cc2ccc(Cl)cc2)C(=O)N1c1cc(-c2ccncc2)n[nH]1` (racemic) [Example 156, (rac)-3-(4-Chlorobenzyl)-1-(3-(pyridin-4-yl)-1H-pyrazol-5-yl)pyrrolidine-2,5-dione], the IC50 was less than 1000 nM.

For the molecule `Cc1c(-c2ccncc2)n[nH]c1N1C(=O)CC(c2ccc(Cl)cc2)CC1=O` (racemic) [Example 157, (rac)-4-(4-Chlorophenyl)-1-(4-methyl-3-(pyridin-4-yl)-1H-pyrazol-5-yl)piperidine-2,6-dione], the IC50 was in the range of 1000 to 10000 nM. In the case of `CC(=O)N(C(=O)CCc1ccc(Cl)cc1)c1[nH]nc(-c2ccncc2)c1C` [Example 1], the IC50 was less than 1000 nM. Regarding `CCC(=O)N(C(=O)CCc1ccc(Cl)cc1)c1[nH]nc(-c2ccncc2)c1C` [Example 2, 3-(4-Chlorophenyl)-N-(4-methyl-3-(pyridin-4-yl)-1H-pyrazol-5-yl)-N-propionylproanamide], the IC50 lay within 1000 to 10000 nM. Next, `Cc1c(-c2ccncc2)n[nH]c1N(C(=O)CCc1ccc(Cl)cc1)C(=O)CCc1ccc(Cl)cc1` [Example 3, 3-(4-Chlorophenyl)-N-(3-(4-chlorophenyl)propanoyl)-N-(4-methyl-3-(pyridin-4-yl)-1H-pyrazol-5-yl)propanamide]: less than 1000 nM.

Consider `Cc1c(-c2ccncc2)n[nH]c1N(C(=O)CCc1ccc(Cl)cc1)C(=O)CCc1cccc(Cl)c1` [Example 4, 3-(3-Chlorophenyl)-N-(3-(4-chlorophenyl)propanoyl)-N-(4-methyl-3-(pyridin-4-yl)-1H-pyrazol-5-yl)propanamide], for which the IC50 is less than 1000 nM. Turning to `Cc1c(-c2ccncc2)n[nH]c1N(C(=O)CCc1ccc(Cl)cc1)C(=O)CCc1ccccc1Cl` [Example 5, 3-(2-Chlorophenyl)-N-(3-(4-chlorophenyl)propanoyl)-N-(4-methyl-3-(pyridin-4-yl)-1H-pyrazol-5-yl)propanamide], the IC50 is less than 1000 nM. As for `Cc1c(-c2ccncc2)n[nH]c1N(C(=O)CCc1ccccc1)C(=O)CCc1ccc(Cl)cc1` [Example 6, 3-(4-Chlorophenyl)-N-(4-methyl-3-(pyridin-4-yl)-1H-pyrazol-5-yl)-N-(3-phenylpropanoyl)propanamide], the IC50 was less than 1000 nM. On to `Cc1c(-c2ccncc2)n[nH]c1N(C(=O)CCc1ccc(Cl)cc1)C(=O)CCC(C)C` [Example 7, N-(3-(4-Chlorophenyl)propanoyl)-4-methyl-N-(4-methyl-3-(pyridin-4-yl)-1H-pyrazol-5-yl)pentanamide], for which the IC50 was 1000 to 10000 nM. On to `Cc1c(-c2ccncc2)n[nH]c1N(C(=O)CCc1ccc(Cl)cc1)C(=O)CCC1CCCC1` [Example 8, 3-(4-Chlorophenyl)-N-(3-cyclopentylpropanoyl)-N-(4-methyl-3-(pyridin-4-yl)-1H-pyrazol-5-yl)propanamide], for which the IC50 is less than 1000 nM.

Turning to `Cc1c(-c2ccncc2)n[nH]c1N(C(=O)CCc1cc(F)c(Cl)c(F)c1)C(=O)CCc1cc(F)c(Cl)c(F)c1` [Example 9, 3-(4-Chloro-3,5-difluorophenyl)-N-(3-(4-chloro-3,5-difluorophenyl)propanoyl)-N-(4-methyl-3-(pyridin-4-yl)-1H-pyrazol-5-yl)propanamide], the IC50 was less than 1000 nM. As for `Cc1c(-c2ccncc2)n[nH]c1N(C(=O)CCc1cc(F)c(F)c(F)c1)C(=O)CCc1cc(F)c(F)c(F)c1` [Example 10, N-(4-Methyl-3-(pyridin-4-yl)-1H-pyrazol-5-yl)-3-(3,4,5-trifluorophenyl)-N-(3-(3,4,5-trifluorophenyl)propanoyl)propanamide], the IC50 is less than 1000 nM. As for `Cc1c(-c2ccncc2)n[nH]c1N(C(=O)CCc1ccc(Cl)cc1)S(C)(=O)=O` [Example 11, 3-(4-Chlorophenyl)-N-(4-methyl-3-(pyridin-4-yl)-1H-pyrazol-5-yl)-N-(methylsulfonyl)propanamide], the IC50 is less than 1000 nM. Next, `Cc1c(-c2ccncc2)n[nH]c1N(C(=O)CCc1ccc(Cl)cc1)C(=O)C(C)C` [Example 12, 3-(4-Chlorophenyl)-N-isobutyryl-N-(4-methyl-3-(pyridin-4-yl)-1H-pyrazol-5-yl)propanamide]: 1000 to 10000 nM; `CCc1c(-c2ccncc2)n[nH]c1NC(=O)CCc1cc(F)c(Cl)c(F)c1` [Example 13, 3-(4-Chloro-3,5-difluorophenyl)-N-(4-ethyl-3-(pyridin-4-yl)-1H-pyrazol-5-yl)propanamide]: less than 1000 nM. For `CCc1c(-c2ccncc2)n[nH]c1NC(=O)CCc1ccc(Cl)cc1` [Example 14, 3-(4-Chlorophenyl)-N-(4-ethyl-3-(pyridin-4-yl)-1H-pyrazol-5-yl)propanamide], the IC50 was less than 1000 nM.

With `CCc1c(-c2ccncc2)n[nH]c1NC(=O)CCc1cc(F)c(C#N)c(F)c1` [Example 15, 3-(4-Cyano-3,5-difluorophenyl)-N-(4-ethyl-3-(pyridin-4-yl)-1H-pyrazol-5-yl)propanamide], the IC50 was less than 1000 nM. For `CCc1c(-c2ccncc2)n[nH]c1NC(=O)CCc1ccc(C#N)c(F)c1` [Example 16, 3-(4-Cyano-3-fluorophenyl)-N-(4-ethyl-3-(pyridin-4-yl)-1H-pyrazol-5-yl)propanamide], the IC50 is less than 1000 nM. Take `CCc1c(-c2ccncc2)n[nH]c1NC(=O)CCc1ccc(Cl)s1` [Example 17]: the IC50 is less than 1000 nM. Next, `Cc1c(-c2ccncc2)n[nH]c1NC(=O)CCc1ccc(Cl)cc1` [Example 19, 3-(4-Chlorophenyl)-N-(4-methyl-3-(pyridin-4-yl)-1H-pyrazol-5-yl)propanamide]: less than 1000 nM; `Cc1c(-c2ccncc2)n[nH]c1NC(=O)CCc1ccc2c(c1)OCO2` [Example 20, 3-(Benzo[d][1,3]dioxol-5-yl)-N-(4-methyl-3-(pyridin-4-yl)-1H-pyrazol-5-yl)propanamide]: less than 1000 nM.
